# Columns and labels:
# Type in all cases: cell-based, human
# [1] = tested on: cell cycle regulating proteins in LNCaP cells; experiment: Western blot of cell cycle regulating proteins, LNCaP; conditions: for CDK2, normalized fold change after GAPDH calibration / CDK4, normalized fold change after GAPDH calibration / CDK6, normalized fold change after GAPDH calibration / Cyclin A, normalized fold change after GAPDH calibration / Cyclin B1, normalized fold change after GAPDH calibration / Cyclin D1, normalized fold change after GAPDH calibration / Cyclin D3, normalized fold change after GAPDH calibration / Cyclin E, normalized fold change after GAPDH calibration / Myt 1, normalized fold change after GAPDH calibration / P-Wee1, normalized fold change after GAPDH calibration / P-cdc2, normalized fold change after GAPDH calibration / P-histone H3, normalized fold change after GAPDH calibration / p21, normalized fold change after GAPDH calibration / p27, normalized fold change after GAPDH calibration: LNCAP, 48 hrs., 0 μM = 100
# Experimental: Cells were plated at 25–30% confluence when maintained in complete media. When the cells required DHT tretment and media replacement to charcoal stripped serum media (CSSM) they were plated at 35–40% confluence. Bergamottin is dissolved in DMSO (vehicle control) and the amount of DMSO at each treatment group was kept constant. After the completion of the treatment cells were washed in phosphate buffer (PBS) containing 2mMEDTA and 2mM EGTA and lysed in RIPA buffer (50 mM TRIS, 150 mM NaCl, 1% NP40, 0.5% sodium deoxycholate, 0.1% SDS, 2mM EDTA, 2mM EGTA) supplemented with protease and phosphatase inhibitors for total protein isolation. Protein estimation was performed using micro BCA assay and equal protein amponts were loaded on SDS-PAGE gels for western analysis. GAPDH was used as an internal control for total protein. Infrared fluorescent-labeled secondary antibodies were used for detection using Odyssey CLx. The bands were quantified using Odyssey software, which calculates pixel density and automatically takes an area adjacent to each band for background corrections. […]
# [2] = tested on: nuclear AR in LNCaP cells; experiment: Cell fractionation, AR nuclear localization, LNCaP; conditions: bergamottin 10μM, with and without DHT induction
# Experimental: Cells were plated at 25–30% confluence when maintained in complete media. When the cells required DHT tretment and media replacement to charcoal stripped serum media (CSSM) they were plated at 35–40% confluence. Bergamottin is dissolved in DMSO (vehicle control) and the amount of DMSO at each treatment group was kept constant. After the completion of the treatment cells were washed in phosphate buffer (PBS) containing 2mMEDTA and 2mM EGTA and lysed in RIPA buffer (50 mM TRIS, 150 mM NaCl, 1% NP40, 0.5% sodium deoxycholate, 0.1% SDS, 2mM EDTA, 2mM EGTA) supplemented with protease and phosphatase inhibitors for total protein isolation. Protein estimation was performed using micro BCA assay and equal protein amponts were loaded on SDS-PAGE gels for western analysis. GAPDH was used as an internal control for total protein. Infrared fluorescent-labeled secondary antibodies were used for detection using Odyssey CLx. The bands were quantified using Odyssey software, which calculates pixel density and automatically takes an area adjacent to each band for background corrections.
# Nuclear and cytoplasmic cell fractionation was prepared using NE-PER Nuclear and cytoplasmic extraction kit from Thermo Scientific (Cat no.78833) and manufacturer’s instructions were followed. […]
# [3] = tested on: LNCaP cells; experiment: Clonogenic assay, LNCaP; conditions: 5μM and 10μM, 3 weeks
# Experimental: For clonogenic assay, cells were plated in 6 well plates (10,000 cells) for 48 h and then treated with indicated amounts of bergamottin and vehicle control (DMSO). After 3 weeks, the colonies were fixed, stained (0.75% crystal violet, 50% ethanol and 1.75% formaldehyde) and counted. The assay was repeated three times.
# [4] = tested on: MDAPCa2b cells; experiment: Cell cycle analysis (propidium iodide, flow cytometry), MDAPCa2b
# Experimental: Cell cycle analysis was performed after staining the cells with propidium iodide (PI). For long term bergamottin treatment (96 hrs.) cells were plated at 25–30% confluence and for short term bergamottin treatment (48 hrs.) they were plated at 30–35% confluence. After completion of specified treatment the cells were trypsinized washed with PBS and fixed in 70% ethanol and then stained with PI in nicoletti buffer (propidium iodide 50 μg/ml, 0.1% sodium citrate, 0.1% triton X-100, RNase 1 mg/ml, in DPBS). Cells were analyzed using C6 Accuri flow cytometer (Becton Dickinson, Mountainview, CA). FlowJo software was used to gate and remove the debris (gate on SSC and FSC) and aggregates (FL2 A and FL2H) from the analysis. Watson pragmatic and Dean-Jett -Fox methods was used to assign percentage frequencies to cells present in the different cell cycle stages.
# [5] = LNCaP, low dose 5 and 10 μM, 96 hrs.
smiles,measurement,setting,value
CC(C)=CCC/C(C)=C/COc1c2ccoc2cc2oc(=O)ccc12 [bergamottin],"CDK2, normalized fold change after GAPDH calibration",[1]; Bergamottin 20 μM,62
same,"CDK4, normalized fold change after GAPDH calibration",[1]; Bergamottin 20 μM,46
same,"CDK6, normalized fold change after GAPDH calibration",[1]; Bergamottin 20 μM,60
same,"Cyclin A, normalized fold change after GAPDH calibration",[1]; Bergamottin 20 μM,80
same,"Cyclin B1, normalized fold change after GAPDH calibration",[1]; Bergamottin 20 μM,50
same,"Cyclin D1, normalized fold change after GAPDH calibration",[1]; Bergamottin 20 μM,43
same,"Cyclin D3, normalized fold change after GAPDH calibration",[1]; Bergamottin 20 μM,68
same,"Cyclin E, normalized fold change after GAPDH calibration",[1]; Bergamottin 20 μM,109
same,"Myt 1, normalized fold change after GAPDH calibration",[1]; Bergamottin 20 μM,103
same,"P-Wee1, normalized fold change after GAPDH calibration",[1]; Bergamottin 20 μM,63
same,"P-cdc2, normalized fold change after GAPDH calibration",[1]; Bergamottin 20 μM,18
same,"P-histone H3, normalized fold change after GAPDH calibration",[1]; Bergamottin 20 μM,294
same,"p21, normalized fold change after GAPDH calibration",[1]; Bergamottin 20 μM,83
same,"p27, normalized fold change after GAPDH calibration",[1]; Bergamottin 20 μM,112
same,"CDK2, normalized fold change after GAPDH calibration",[1]; Bergamottin 30 μM,67
same,"CDK4, normalized fold change after GAPDH calibration",[1]; Bergamottin 30 μM,30
same,"CDK6, normalized fold change after GAPDH calibration",[1]; Bergamottin 30 μM,12
same,"Cyclin A, normalized fold change after GAPDH calibration",[1]; Bergamottin 30 μM,55
same,"Cyclin B1, normalized fold change after GAPDH calibration",[1]; Bergamottin 30 μM,44
same,"Cyclin D1, normalized fold change after GAPDH calibration",[1]; Bergamottin 30 μM,12
same,"Cyclin D3, normalized fold change after GAPDH calibration",[1]; Bergamottin 30 μM,44
same,"Cyclin E, normalized fold change after GAPDH calibration",[1]; Bergamottin 30 μM,53
same,"Myt 1, normalized fold change after GAPDH calibration",[1]; Bergamottin 30 μM,82
same,"P-Wee1, normalized fold change after GAPDH calibration",[1]; Bergamottin 30 μM,37
same,"P-cdc2, normalized fold change after GAPDH calibration",[1]; Bergamottin 30 μM,5
same,"P-histone H3, normalized fold change after GAPDH calibration",[1]; Bergamottin 30 μM,35
same,"p21, normalized fold change after GAPDH calibration",[1]; Bergamottin 30 μM,102
same,"p27, normalized fold change after GAPDH calibration",[1]; Bergamottin 30 μM,183
same,CDK4 level (western blot),[1]; [5],did not observe any significant change
same,CDK6 level (western blot),[1]; [5],did not observe any significant change
same,cdc-2 phosphorylation (western blot),[1]; [5],Decreased cdc-2 phosphorylation
same,cyclin B1 level (western blot),[1]; [5],lower
same,cyclin D1 level (western blot),[1]; [5],lower
same,cyclin D3 level (western blot),[1]; [5],lower
same,nuclear translocation of AR (cell fractionation),[2],inhibited nuclear translocation of AR
same,number of colonies,[3],significantly reduced the number of colonies
same,"G1 frequency, Dean-Jett-Fox","[4]; Berg 5μM, 96 hrs.",84.2 ±1.5%
same,"G2 frequency, Dean-Jett-Fox","[4]; Berg 5μM, 96 hrs.",2.3 ±2.2%
same,"G2 frequency, Watson Pragmatic","[4]; Berg 5μM, 96 hrs.",8.4 ±1.6%
same,"S frequency, Dean-Jett-Fox","[4]; Berg 5μM, 96 hrs.",12.2 ±1.0%
same,"S frequency, Watson Pragmatic","[4]; Berg 5μM, 96 hrs.",7.7 ±2.6%
same,"G1 frequency, Dean-Jett-Fox","[4]; Berg 10μM, 96 hrs.",88.8 ±2.0%
same,"G2 frequency, Dean-Jett-Fox","[4]; Berg 10μM, 96 hrs.",3.3 ±0.3%
same,"G2 frequency, Watson Pragmatic","[4]; Berg 10μM, 96 hrs.",6.6 ±1.2%
same,"S frequency, Dean-Jett-Fox","[4]; Berg 10μM, 96 hrs.",7.4 ±2.5%
same,"S frequency, Watson Pragmatic","[4]; Berg 10μM, 96 hrs.",5.8 ±2.8%
same,"G1 frequency, Dean-Jett-Fox","[4]; Berg 20μM, 48 hrs.",84.9 ±0.4%
same,"G2 frequency, Dean-Jett-Fox","[4]; Berg 20μM, 48 hrs.",9.6 ±0.5%
same,"G2 frequency, Watson Pragmatic","[4]; Berg 20μM, 48 hrs.",9.6 ±1.8%
same,"S frequency, Dean-Jett-Fox","[4]; Berg 20μM, 48 hrs.",6.7 ±0.7%
same,"S frequency, Watson Pragmatic","[4]; Berg 20μM, 48 hrs.",7.1 ±1.7%
same,"G1 frequency, Dean-Jett-Fox","[4]; Berg 30μM, 48 hrs.",88.4 ±3.6%
same,"G2 frequency, Dean-Jett-Fox","[4]; Berg 30μM, 48 hrs.",6.8 ±3.2%
same,"G2 frequency, Watson Pragmatic","[4]; Berg 30μM, 48 hrs.",8.4 ±1.1%
same,"S frequency, Dean-Jett-Fox","[4]; Berg 30μM, 48 hrs.",3.3 ±3.4%
same,"S frequency, Watson Pragmatic","[4]; Berg 30μM, 48 hrs.",5.6 ±0.5%

# Source: paper PMC8476002, “Bergamottin a CYP3A inhibitor found in grapefruit juice inhibits prostate cancer cell growth by downregulating androgen receptor signaling and promoting G0/G1 cell cycle block and apoptosis” (PLoS ONE, 2021)
